Laboratory results taken from the NIST ThermoML archive (doi:10.1016/j.jct.2004.11.001).

Conditions: Liquid; for speed of sound: non intrusive technique with two piezoelectric transducers based on the time of flight

[2H]C([2H])([2H])C(=O)C([2H])([2H])[2H] [(D6)-2-propanone]
Conditions | mass density [kg/m3] | speed of sound [m/s]
288.2 K, 100 kPa | – | 1110.6
288.2 K, 5020 kPa | – | 1140.7
288.2 K, 10060 kPa | – | 1168.2
288.2 K, 20010 kPa | – | 1218.6
288.2 K, 30090 kPa | – | 1264.4
288.2 K, 40050 kPa | – | 1302.9
288.2 K, 49940 kPa | – | 1345.4
288.2 K, 60000 kPa | – | 1382.2
288.2 K, 70020 kPa | – | 1417.2
288.2 K, 80060 kPa | – | 1450.1
288.2 K, 90030 kPa | – | 1481.9
288.2 K, 100110 kPa | – | 1512.5
288.2 K, 110100 kPa | – | 1540.4
288.2 K, 120100 kPa | – | 1568.3
288.2 K, 130120 kPa | – | 1595.5
288.2 K, 140000 kPa | – | 1620.6
288.2 K, 150150 kPa | – | 1640.3
288.2 K, 160030 kPa | – | 1664
298.15 K, 100 kPa | 868 | –
298.15 K, 5000 kPa | 873.51 | –
298.15 K, 9920 kPa | 878.81 | –
298.15 K, 14840 kPa | 883.83 | –
298.15 K, 19760 kPa | 888.58 | –
298.15 K, 24670 kPa | 893.11 | –
298.15 K, 29590 kPa | 897.46 | –
298.15 K, 34510 kPa | 901.62 | –
298.15 K, 39430 kPa | 905.63 | –
298.15 K, 44340 kPa | 909.51 | –
298.15 K, 49260 kPa | 913.26 | –
298.15 K, 54180 kPa | 916.86 | –
298.15 K, 59100 kPa | 920.33 | –
298.25 K, 100 kPa | – | 1071.6
298.25 K, 5080 kPa | – | 1103.4
298.25 K, 10170 kPa | – | 1131.8
298.25 K, 20270 kPa | – | 1183.7
298.25 K, 30000 kPa | – | 1229.6
298.25 K, 40010 kPa | – | 1272.1
298.25 K, 50020 kPa | – | 1312
298.25 K, 60450 kPa | – | 1350.7
298.25 K, 70020 kPa | – | 1383.8
298.25 K, 80010 kPa | – | 1416.9
298.25 K, 90200 kPa | – | 1443.5
298.25 K, 100040 kPa | – | 1478.7
298.25 K, 110070 kPa | – | 1507.6
298.25 K, 120040 kPa | – | 1535.4
298.25 K, 130020 kPa | – | 1561.1
298.25 K, 140020 kPa | – | 1586.5
298.25 K, 150120 kPa | – | 1611.2
298.25 K, 159970 kPa | – | 1634.8
303.16 K, 100 kPa | 861.61 | –
303.16 K, 5000 kPa | 867.3 | –
303.16 K, 9920 kPa | 872.78 | –
303.16 K, 14840 kPa | 877.94 | –
303.16 K, 19760 kPa | 882.84 | –
303.16 K, 24670 kPa | 887.5 | –
303.16 K, 29590 kPa | 891.96 | –
303.16 K, 34510 kPa | 896.23 | –
303.16 K, 39430 kPa | 900.35 | –
303.16 K, 44340 kPa | 904.3 | –
303.16 K, 49260 kPa | 908.1 | –
303.16 K, 54180 kPa | 911.79 | –
303.16 K, 59100 kPa | 915.34 | –
308.2 K, 100 kPa | 855.39 | –
308.2 K, 5000 kPa | 861.42 | –
308.2 K, 9920 kPa | 867.11 | –
308.2 K, 14840 kPa | 872.49 | –
308.2 K, 19760 kPa | 877.58 | –
308.2 K, 24670 kPa | 882.42 | –
308.2 K, 29590 kPa | 887.02 | –
308.2 K, 34510 kPa | 891.38 | –
308.2 K, 39430 kPa | 895.65 | –
308.2 K, 44340 kPa | 899.72 | –
308.2 K, 49260 kPa | 903.62 | –
308.2 K, 54180 kPa | 907.33 | –
308.2 K, 59100 kPa | 910.94 | –
308.22 K, 100 kPa | – | 1033.3
308.22 K, 5040 kPa | – | 1063.2
308.22 K, 10000 kPa | – | 1093.5
308.22 K, 20090 kPa | – | 1147.9
308.22 K, 29990 kPa | – | 1196.3
308.22 K, 40040 kPa | – | 1240.8
308.22 K, 50090 kPa | – | 1281.7
308.22 K, 60060 kPa | – | 1319.5
308.22 K, 70070 kPa | – | 1355
308.22 K, 80090 kPa | – | 1388.6
308.22 K, 89970 kPa | – | 1420.3
308.22 K, 100070 kPa | – | 1450.8
308.22 K, 110070 kPa | – | 1479.7
308.22 K, 120060 kPa | – | 1507.5
308.22 K, 130120 kPa | – | 1534.3
308.22 K, 140080 kPa | – | 1559.4
308.22 K, 150120 kPa | – | 1584
308.22 K, 160000 kPa | – | 1607.2
313.21 K, 100 kPa | 848.68 | –
313.21 K, 5000 kPa | 855 | –
313.21 K, 9920 kPa | 860.92 | –
313.21 K, 14840 kPa | 866.48 | –
313.21 K, 19760 kPa | 871.75 | –
313.21 K, 24670 kPa | 876.72 | –
313.21 K, 29590 kPa | 881.49 | –
313.21 K, 34510 kPa | 886.02 | –
313.21 K, 39430 kPa | 890.35 | –
313.21 K, 44340 kPa | 894.51 | –
313.21 K, 49260 kPa | 898.52 | –
313.21 K, 54180 kPa | 902.37 | –
